The values that follow come from US8569313B2, “Meta-substituted phenyl sulfonyl amides of secondary amino acid amides, the production thereof, and use thereof as matriptase inhibitors” (The Medicines Company (Leipzig) GmbH, priority 2007, dated 2013).

This assay deals with matriptase (Homo sapiens (Human), UniProt Q9Y5Y6). Nature of the assay: Determination of the matriptase inhibition (chromogenic substrate CH3SO2-D-Cha-Gly-Arg-pNA, Dixon Ki). Format: biochemical. Conditions: 25° C., pH 8.0; means of at least two determinations. As to the method: Determination of the Matriptase Inhibition
matriptase, sequence (Q9Y5Y6 whole entry): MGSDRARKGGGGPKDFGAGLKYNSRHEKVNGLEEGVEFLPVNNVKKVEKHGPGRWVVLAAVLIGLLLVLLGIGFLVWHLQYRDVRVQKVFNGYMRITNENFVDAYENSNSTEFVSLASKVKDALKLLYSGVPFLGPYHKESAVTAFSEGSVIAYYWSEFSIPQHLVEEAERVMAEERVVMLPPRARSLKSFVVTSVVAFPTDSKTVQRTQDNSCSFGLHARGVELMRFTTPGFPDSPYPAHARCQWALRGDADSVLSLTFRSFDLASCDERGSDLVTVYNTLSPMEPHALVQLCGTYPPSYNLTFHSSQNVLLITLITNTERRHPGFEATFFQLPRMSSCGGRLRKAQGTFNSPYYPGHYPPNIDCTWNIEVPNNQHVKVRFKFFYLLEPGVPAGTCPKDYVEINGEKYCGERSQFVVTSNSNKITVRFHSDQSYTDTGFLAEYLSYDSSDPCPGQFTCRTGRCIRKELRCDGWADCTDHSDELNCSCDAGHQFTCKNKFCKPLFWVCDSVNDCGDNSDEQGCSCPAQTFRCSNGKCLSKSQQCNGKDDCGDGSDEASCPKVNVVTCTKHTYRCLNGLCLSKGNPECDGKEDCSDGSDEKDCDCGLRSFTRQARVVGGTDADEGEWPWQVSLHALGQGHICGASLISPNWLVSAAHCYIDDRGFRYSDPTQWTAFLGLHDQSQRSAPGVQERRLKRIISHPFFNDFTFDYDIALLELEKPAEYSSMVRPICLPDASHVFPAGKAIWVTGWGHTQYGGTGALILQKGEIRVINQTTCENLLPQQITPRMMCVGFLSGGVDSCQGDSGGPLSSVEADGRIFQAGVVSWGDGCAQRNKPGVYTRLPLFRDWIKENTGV
To determine the inhibition effect, 200 μl Tris buffer (inhibitor contains 0.05 M, 0.154 M NaCl, 5% ethanol, pH 8.0), 25 μl substrate (CH3SO2-D-Cha-Gly-Arg-pNA; 2 and 1 mM) and 50 μl matriptase (0.5 μg/ml) were incubated at 25° C. After 3 min the reaction was halted through the addition of 25 μl acetic acid (50%) and the Absorption determined at 405 nm by means of a Microplate Reader (Multiscan Ascent from the company Thermo Electron Corporation). The Ki values were calculated according to Dixon (Biochem. J. 55, 170-171, 1953) through linear regression by means of a computer program. The Ki-values are the means of at least two determinations.
Ki value for the inhibition of matriptase in nM (n.d.=not determined)
What is called Ki is the dissociation constant of the complex between target and ligand, obtained from inhibition or displacement. A high value points to lower affinity. `COc1ccc(-c2cccc(S(=O)(=O)NC(Cc3cccc(C(=N)N)c3)C(=O)N3CCC(CCN)CC3)c2)cc1OC` (stereo not drawn) [Inhibitor 1, 3-(3,4-dimethoxyphenyl)phenyl sulfonyl-d/l-Phe(3-Am)-4-(2-aminoethyl)piperidide]: the affinity corresponds to a Ki of 5.4 nM.
The result for `N=C(N)c1cccc(CC(NS(=O)(=O)c2cccc(-c3ccccc3)c2)C(=O)N2CCC(CCN)CC2)c1` (stereo not drawn) [Inhibitor 2] reads 100 nM; that for `COc1ccc(-c2cccc(S(=O)(=O)NC(Cc3cccc(C(=N)N)c3)C(=O)N3CCC(CCN)CC3)c2)cc1` (stereo not drawn) [Inhibitor 3], 6 nM.
The result for `CCOc1ccc(-c2cccc(S(=O)(=O)NC(Cc3cccc(C(=N)N)c3)C(=O)N3CCC(CCN)CC3)c2)cc1` (stereo not drawn) [Inhibitor 4] reads 5.4 nM.
The result for `CCc1ccc(-c2cccc(S(=O)(=O)NC(Cc3cccc(C(=N)N)c3)C(=O)N3CCC(CCN)CC3)c2)cc1` (stereo not drawn) [Inhibitor 5] reads 2.5 nM; that for `CC(C)Oc1ccc(-c2cccc(S(=O)(=O)NC(Cc3cccc(C(=N)N)c3)C(=O)N3CCC(CCN)CC3)c2)cc1` (stereo not drawn) [Inhibitor 6], 12 nM; that for `N=C(N)c1cccc(CC(NS(=O)(=O)c2cccc(-c3ccc(Cl)cc3)c2)C(=O)N2CCC(CCN)CC2)c1` (stereo not drawn) [Inhibitor 7], 26 nM.
With `N=C(N)c1cccc(CC(NS(=O)(=O)c2cccc(-c3cccc(Cl)c3)c2)C(=O)N2CCC(CCN)CC2)c1` (stereo not drawn) [Inhibitor 8], the Ki is 91 nM. Compared with the last compound, the Ki is about 3.5-fold higher.
Take `N=C(N)c1cccc(CC(NS(=O)(=O)c2cccc(-c3ccccc3Cl)c2)C(=O)N2CCC(CCN)CC2)c1` (stereo not drawn) [Inhibitor 9]: the Ki came out at 29 nM.
For `N=C(N)c1cccc(CC(NS(=O)(=O)c2cccc(-c3ccncc3)c2)C(=O)N2CCC(CCN)CC2)c1` (stereo not drawn) [Inhibitor 10], the Ki came to 60 nM.
The result for `N=C(N)c1cccc(CC(NS(=O)(=O)c2cccc(-c3cccnc3)c2)C(=O)N2CCC(CCN)CC2)c1` (stereo not drawn) [Inhibitor 11] reads 47 nM.
The compound `Cc1nccc(-c2cccc(S(=O)(=O)N[C@@H](Cc3cccc(C(=N)N)c3)C(=O)N3CCC(CCN)CC3)c2)n1` [Inhibitor 12] came in with a Ki of 28 nM. This Ki lies about 1.7-fold lower than the previous one.
The result for `N=C(N)c1cccc(CC(NS(=O)(=O)c2cccc(-c3ccc4[nH]ccc4c3)c2)C(=O)N2CCC(CCN)CC2)c1` (stereo not drawn) [Inhibitor 13] reads 13 nM.
The result for `N=C(N)c1cccc(CC(NS(=O)(=O)c2cccc(-c3ccc(N)nc3)c2)C(=O)N2CCC(CCN)CC2)c1` (stereo not drawn) [Inhibitor 14] reads 4.2 nM.
The result for `N=C(N)c1cccc(CC(NS(=O)(=O)c2cccc(C3CCC(N)=NC3)c2)C(=O)N2CCC(CCN)CC2)c1` (stereo not drawn) [Inhibitor 15] reads 0.069 nM.
Regarding `N=C(N)c1cccc(C[C@H](NS(=O)(=O)c2cccc(CCCCN)c2)C(=O)N2CCC(CCN)CC2)c1` [Inhibitor 16, 3-(1-aminobutyl)-phenyl sulfonyl-Phe(3-Amidino)-4-(2-aminoethyl)piperidide], the affinity, expressed as Ki, was 0.74 nM.
The result for `CNC(=O)CCCC1CCN(C(=O)[C@H](Cc2cccc(C(=N)N)c2)NS(=O)(=O)c2cccc(NC(=O)CCN)c2)CC1` [Inhibitor 17, N-(3-β-Ala)amidophenyl sulfonyl-Phe(3-Am)-piperidine buteryl-N-methylamide] reads 6.3 nM.
The result for `CCOc1ccc(-c2cccc(S(=O)(=O)N[C@@H](Cc3cccc(C(=N)N)c3)C(=O)N3CCC(CCCC(=O)NC)CC3)c2)cc1` [Inhibitor 18] reads 8.1 nM; that for `CCc1ccc(-c2cccc(S(=O)(=O)N[C@@H](Cc3cccc(C(=N)N)c3)C(=O)N3CCC(CCCC(=O)NC)CC3)c2)cc1` [Inhibitor 19], 24.5 nM; that for `COC(=O)CCCC1CCN(C(=O)[C@H](Cc2cccc(C(=N)N)c2)NS(=O)(=O)c2cccc(NC(=O)CCN)c2)CC1` [Inhibitor 20], 6.1 nM.
`N=C(N)c1cccc(C[C@H](NS(=O)(=O)c2cccc(NC(=O)CCN)c2)C(=O)N2CCC(CCCC(N)=O)CC2)c1` [Inhibitor 21] yielded a Ki of 11.8 nM.
For `N=C(N)c1cccc(C[C@H](NS(=O)(=O)c2cccc(NC(=O)CCN)c2)C(=O)N2CCC(CCCC(=O)O)CC2)c1` [Inhibitor 22], the Ki was 255 nM.
Compound `N=C(N)c1cccc(C[C@H](NS(=O)(=O)c2cccc(NC(=O)CCN)c2)C(=O)N2CCC(C(N)=O)CC2)c1` [Inhibitor 23] had a Ki of 12.1 nM.
`N=C(N)c1cccc(C[C@H](NS(=O)(=O)c2cccc(NC(=O)CCN)c2)C(=O)N2CCCC(C(N)=O)C2)c1` (stereo partly drawn) [Inhibitor 24] came in with an inhibitory constant (Ki) of 30.5 nM.
The result for `N=C(N)c1cccc(C[C@H](NS(=O)(=O)c2cccc(NC(=O)CCN)c2)C(=O)N2CCN(C(=O)OCc3ccccc3)CC2)c1` [Inhibitor 26] reads 6.1 nM; that for `N=C(N)c1cccc(C[C@H](NS(=O)(=O)c2cccc(NC(=O)CCN)c2)C(=O)N2CCNCC2)c1` [Inhibitor 27], 36 nM.
The result for `N=C(N)c1cccc(C[C@H](NS(=O)(=O)c2cccc(NC(=O)CCN)c2)C(=O)N2CCCCC2)c1` [Inhibitor 28] reads 32 nM.
The result for `CNC(=O)CCCC1CCN(C(=O)C(Cc2cccc(C(=N)N)c2)NS(=O)(=O)c2cccc(-n3ncccc3=O)c2)CC1` (stereo not drawn) [Inhibitor 29] reads 98 nM.
`CNC(=O)CCCC1CCN(C(=O)[C@H](Cc2cccc(C(=N)N)c2)NS(=O)(=O)c2cccc(N3CCCCC3=O)c2)CC1` [Inhibitor 30] registered an inhibitory constant (Ki) of 31 nM.
Compound `CCc1ccc(-c2cccc(S(=O)(=O)N[C@@H](Cc3cccc(/C(N)=N\O)c3)C(=O)N3CCC(CCCC(=O)NC)CC3)c2)cc1` [Inhibitor 33] displayed a Ki of 24000 nM.
The result for `NCCC(=O)Nc1cccc(S(=O)(=O)N[C@@H](Cc2cccc(CN)c2)C(=O)N2CCC(CCN)CC2)c1` [Inhibitor 34, H-βAla-3-NH-phenyl sulfonyl-Phe(3-Ame)-(2-aminoethyl)piperidide] reads 56 nM.
The result for `COc1ccc(-c2cccc(S(=O)(=O)NC(Cc3cccc(CN)c3)C(=O)N3CCC(CCN)CC3)c2)cc1` (stereo not drawn) [Inhibitor 35] reads 145 nM.
The result for `NCCC(=O)Nc1cccc(S(=O)(=O)N[C@@H](Cc2cccc(CN)c2)C(=O)N2CCN(C(=O)OCc3ccccc3)CC2)c1` [Inhibitor 36] reads 44.5 nM; that for `N=C(N)c1cccc(C[C@H](NS(=O)(=O)c2cccc(NC(=O)CCO)c2)C(=O)N2CCC(CCN)CC2)c1` [Inhibitor 37], 117 nM; that for `CNC(=O)CCCC1CCN(C(=O)[C@H](Cc2cccc(C(=N)N)c2)NS(=O)(=O)c2cccc(NC(=O)C3CNC3)c2)CC1` [Inhibitor 38], 16 nM.
Consider `N=C(N)c1cccc(C[C@H](NS(=O)(=O)c2cccc(NC(=O)C3CNC3)c2)C(=O)N2CCC(CCN)CC2)c1` [Inhibitor 40], for which the Ki was 1.7 nM.
The result for `CNC(=O)CCCC1CCN(C(=O)[C@H](Cc2cccc(C(=N)N)c2)NS(=O)(=O)c2cccc(-c3ccc(C(C)(C)C)cc3)c2)CC1` [Inhibitor 41] reads 87 nM; that for `CNC(=O)CCCC1CCN(C(=O)[C@H](Cc2cccc(C(=N)N)c2)NS(=O)(=O)c2cccc(-c3ccc(C(C)C)cc3)c2)CC1` [Inhibitor 44], 23.5 nM; that for `CNC(=O)CCCC1CCN(C(=O)[C@H](Cc2cccc(C(=N)N)c2)NS(=O)(=O)c2cccc(-c3ccc(N)nc3)c2)CC1` [Inhibitor 46], 11 nM.
The result for `CNC(=O)CCCC1CCN(C(=O)[C@H](Cc2cccc(C(=N)N)c2)NS(=O)(=O)c2cccc(C3CCC(N)=NC3)c2)CC1` (stereo partly drawn) [Inhibitor 47] reads 0.49 nM.
The result for `N=C(N)c1cccc(C[C@H](NS(=O)(=O)c2cccc(NC(=O)CCN)c2)C(=O)N2CCC(C(=O)OCc3ccccc3)CC2)c1` [Inhibitor 48] reads 0.7 nM; that for “H-βAla-3-NH-phenyl sulfonyl-Phe(3-Am)-4-piperidyl-(CH2)3—CONH—(CH2)2-PEG10000-CH3 [Inhibitor 50]”, 54 nM.
